Patent US20180353521A1, “METHOD FOR TREATING STROKE OR REDUCING NERVE INJURY” (priority 2017, published 2018)
Entries after “also recorded” stand apart in the source; their conditions may differ.

Assays:
[1] = test system: Middle Cerebral Artery Occlusion, MCAO/Reperfusion Model (ischemic stroke); test: Neurobehavioral assessment after MCAO surgery; conditions: 50 mg/kg given 10 minutes before MCAO, 24 hours after MCAO surgery, Student's T test vs Vehicle, FIG. 3
Description: (§1) Test animals (250-350 g of male SD rats in this example) were anesthetized with 2% isoflurane in N2O/O2 (70%/30%). The right common carotid artery (right CCA), external carotid artery (ECA), and internal carotid artery (ICA) were isolated.
(§2) Cutting along the midline of the scalp, the nylon monofilament (the front of the nylon monofilament was covered with polysiloxane) was inserted through the external carotid artery along the internal carotid artery and extending to circle of Willis of the brain, resulting in obstruction of the middle cerebral artery. After an hour of ischemia, the nylon monofilament was removed and the brain's blood was reperfused.
(§3) The above-mentioned prevention model experiment further comprised a blank control group (sham) which were undergone no MCAO surgery and administered without the compound; and a vehicle control group (Vehicle) which was undergone MCAO surgery and administered with water in place of the compound.
Neurobehavioral assessment in one embodiment of the present invention was performed on the rats at 0.5, 1.5 and 24 hours after MCAO surgery on each group of rats, and scored according to the following states.
Score 0: lifting the rat by its tail to about 20 to 30 cm above the ground and observing the state of stretching the forelimbs, at which state the forelimb of the rat could stretch towards the ground with balance and no occurrences of other nerve injuries is shown in FIG. 2(A), representing the normal rat.
Score 1: lifting the rat by its tail to about 20 to 30 cm above the ground and observing the state of stretching the forelimb.
Score 2: the rat was placed on the ground and a lateral thrust was applied. The resistance of the rat to the thrust ipsilateral to the damaged area of the brain was decreased.
Score 3: the rat continued to go around in circles towards the contralateral side of damaged area of the brain and incapable of going straight when it was set free to exercise.
The Student's T test was adopted to determine whether there was difference between the groups administered with each compound and the Vehicle group. If the p value was less than or equal to 0.05, it represented significant difference.

[2] = test system: Middle Cerebral Artery Occlusion, MCAO/Reperfusion Model (ischemic stroke); test: Analysis of brain infarct region (TTC staining) after MCAO; assay type: in vivo, male SD rats; conditions: 50 mg/kg given 10 minutes before MCAO; for reduction of brain infarct volume vs vehicle control group: Student's T test; for reduction of infarct size at positions from the front end of the brain: brain taken 24 hours after MCAO, 2 mm slices, FIG. 4B
[3] = Weight analysis in MCAO/reperfusion model; conditions: 24 hours after MCAO surgery, 50 mg/kg; for retardation in body weight decrease vs vehicle control group: FIG. 5; for body weight, AVG, 24 hr: average value
Description: as §1, §2, §3

SMILES | nerve injury (neurobehavioral assessment score) vs Vehicle ([1]; listed as AR-04-155) | reduction of brain infarct volume vs vehicle control group ([2]; 24 hours after MCAO, FIG. 4C, listed as AR-04-155) | reduction of infarct size at positions from the front end of the brain [2] | retardation in body weight decrease vs vehicle control group [3] | body weight, AVG, 24 hr [3] | nerve injury (neurobehavioral assessment score) vs Vehicle [1] | nerve injury (neurobehavioral assessment score) vs Vehicle ([1]; listed as AR-04-415) | total infarct volume (%) of the brain ([2]; 24 hours after MCAO, FIG. 4C) | reduction of brain infarct volume vs vehicle control group ([2]; 24 hours after MCAO, FIG. 4C) | reduction of brain infarct volume vs vehicle control group ([2]; 24 hours after MCAO, FIG. 4C, listed as AR-04-415) | nerve injury (neurobehavioral assessment score) vs Vehicle ([1]; listed as AR-04-18225) | reduction of brain infarct volume vs vehicle control group ([2]; 24 hours after MCAO, FIG. 4C, listed as AR-04-18225) | reduction of infarct size at positions from the front end of the brain ([2]; listed as AR-04-18225)
COc1cc(C)c(OC)c2c1OCO2 [AR-04-15S, 4,7-Dimethoxy-5-methyl-1,3-benzodioxole] | recovery tendency; also recorded: significant effects in reducing nerve injury | significant effects in reducing the infarct; also recorded: statistically significant effect in reducing the brain infarct volume | significant effect in reducing the infarct size at 7 mm, 9 mm and 11 mm | significant retardation in body weight decrease | 243.2 | – | – | – | – | – | – | – | –
C=C(CC[C@@H](C(=O)O)[C@H]1CC[C@@]2(C)C3=CC[C@H]4C(C)(C)[C@@H](O)CC[C@]4(C)C3=CC[C@]12C)C(C)C [AR-04-41S, dehydroeburicoic acid] | – | – | significant effect in reducing the infarct size at 3 mm, 7 mm, 9 mm, 11 mm, and 13 mm; also recorded: better efficacy at 7 mm | – | 266.5 | statistically significant in efficacy; also recorded: statistically significant effect in reducing nerve injury | recovery tendency | less than 10% | statistically significant effect in reducing the brain infarct volume | best effect on reducing the infarct volume | – | – | –
C=C(CC[C@@H](C(=O)O)[C@H]1C[C@H](O)[C@@]2(C)C3=CC[C@H]4C(C)(C)[C@@H](O)CC[C@]4(C)C3=CC[C@]12C)C(C)C [AR-04-1822S, dehydrosulphurenic acid (dehydrosulfurenic acid)] | – | – | – | significant retardation in body weight decrease | 270.0 | statistically significant in efficacy | – | – | significant effects in reducing the infarct | – | recovery tendency; also recorded: statistically significant effect in reducing nerve injury | statistically significant effect in reducing the brain infarct volume | significant effect in reducing the infarct size at 3 mm, 5 mm, 7 mm, 9 mm, 11 mm, and 13 mm; also recorded: significantly better effect in reducing the infarct size at 7 mm and 9 mm
